From publication PMC10987619, “Identification and structural characterization of small molecule inhibitors of PINK1” (Scientific Reports, 2024)

What was measured:
[1] = biological target: T1, TcPINK1 (Tribolium castaneum, UniProt D6WMX4); assay: In vitro ubiquitin kinase assay with tetraubiquitin (Ub4), pUb immunoblot; format: biochemical; conditions: 100 µM compound; for Inhibition of Ub4 phosphorylation (kinase activity of TcPINK1): 100 µM ATP, 5 min, 30 °C
T1 construct: GST (N, cleaved yes); made in house; host or cells: E. coli
T1 sequence (D6WMX4 121-570 limits assumed): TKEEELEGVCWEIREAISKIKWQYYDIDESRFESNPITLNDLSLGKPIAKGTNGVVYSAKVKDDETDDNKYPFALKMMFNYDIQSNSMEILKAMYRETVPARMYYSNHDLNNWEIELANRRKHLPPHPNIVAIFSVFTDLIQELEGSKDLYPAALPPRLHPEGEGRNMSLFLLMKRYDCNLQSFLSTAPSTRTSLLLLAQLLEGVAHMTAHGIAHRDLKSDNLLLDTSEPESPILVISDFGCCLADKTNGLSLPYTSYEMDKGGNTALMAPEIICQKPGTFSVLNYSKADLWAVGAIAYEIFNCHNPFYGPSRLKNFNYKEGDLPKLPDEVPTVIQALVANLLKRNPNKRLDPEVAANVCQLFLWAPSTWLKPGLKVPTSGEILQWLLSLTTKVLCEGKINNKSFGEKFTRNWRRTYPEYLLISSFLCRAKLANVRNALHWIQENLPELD
Description: Inhibitors were purchased from different sources via Cedarlane Laboratories (catalog # in parenthesis). […] Olaparib was sent by mistake by Adooq Bioscience under cat #P505-15 and identified by LC–MS/MS (MS^1: m/z 435.183; MS^2: m/z 367.157, 281.072). MTK458 was donated by Mitokinin. The racemic PRT-core was custom synthesised by ChemSpace (CSCS02808122161). Kinase activity assays were performed by mixing 5 nM of purified TcPINK1 with 100 µM ATP, 100 µM small molecules from 10 mM stock in DMSO, 200 µM MgCl2 in kinase buffer (final 1% DMSO). The reactions were left in a 30 °C incubator for 5 min for TcPINK1. The reactions were stopped with the addition of Laemmli buffer (2% SDS, 0.1% bromophenol blue (SigmaAldrich), 10% glycerol, 100 mM DTT) final concentration 1X. The entire reaction was loaded onto a 12.5% Tris-Tricine gel (1 M Tris–HCl pH 8.45, 12.5% acrylamide, 0.1% SDS, 0.1% APS, 0.04% TEMED). Protein from a 12.5% polyacrylamide gel were transferred onto an immuno-blot polyvinylidene fluoride (PVDF) membrane (Bio-rad). The membranes were stained with 1% Ponceau and imaged using the ImageQuant LAS 500. The membrane was washed with distilled water and then blocked in 5% BSA diluted in tris buffered saline with 0.1% Tween (TBS-T) for 1 h. The membrane was briefly rinsed and left to incubate with primary antibody anti-pS65-Ub (E2J6T; rabbit mAb, CST, 62802) at a 1:10,000 dilution in TBS-T for 2 h. The membrane was further rinsed three times for 10 min with TBS-T before incubating it with a 1:2000 dilution of secondary antibody, anti-rabbit horseradish peroxidase (HRP)-conjugated antibodies (CST, 7074), in TBS-T. The membrane was rinsed three times for 10 min in TBS followed by the addition of 1 mL ECL solution (BioRad) to the membrane and visualized on the ImageQuant LAS 500. Densitometry was performed using the Fiji software.

[2] = biological target: T2, TcPINK1 121-570 (TcPINK1-4arom) (Tribolium castaneum, UniProt D6WMX4, F401A/W131A/W142A/Y225A); assay: Isothermal titration calorimetry; format: binding; conditions: AMP-PNP (syringe) into TcPINK1 (cell), 20 °C, one-site model
T2 construct: GST (N, cleaved yes); made in house; host or cells: E. coli BL21 DE3
Description: The isothermal titration calorimetry (ITC) assay was performed using the Microcal ITC 200-1 instrument. […] Experiment involved 29 injections of AMP-PNP at 1.5 mM into a sample cell containing 350 μL of 100 µM TcPINK1-4arom at 20 °C. Data was fitted to a one-site model and background was subtracted using the Origin v7 software.

[3] = biological target: T3, TcPINK1 (Tribolium castaneum, UniProt D6WMX4); assay: Kinase Glo luminescence assay (ATP hydrolysis) IC50 determination; format: biochemical; conditions: 1 µM unphosphorylated TcPINK1, 10 µM ATP, 5 min, 30 °C
T3 construct: TcPINK1 (121–570) ampicillin-resistant plasmids were co-expressed in BL21 DE3 E. coli with lambda phosphatase; GST (N, cleaved yes); made in house; host or cells: E. coli BL21 DE3
Description: The Kinase Glo Max (cat #V6071) kit assay was used to measure the ATP consumed in the kinase assays. Unphosphorylated 1 µM TcPINK1 was incubated with 10 µM ATP for 5 min at 30 °C in kinase buffer ([…]). […] The kinase buffer consists of 50 mM Tris–HCl pH 7.5, 300 mM NaCl, 1 mM DTT. 100 µL of kinase at 1 µM was added to 100 µL kinase buffer with inhibitor and left in a 30 °C incubator. After the 5-min mark, 200 µL kinase glo was added to stop the reaction. 100 µL of the sample was then pipetted into 3 wells of an opaque white 96-well plate. The luminescence was measured using the Orion II Microplate Luminometer and obtained using the Simplicity 4.2 program. […] The ATP concentration remaining in the reaction was calculated from the linear equation of the ATP standard curve. This number was then divided by the amount of ATP initially present and multiplied by 100 to obtain the percent inhibition. The values were normalized according to the baseline (no inhibitor). The points plotted on a non-linear regression graph in GraphPad Prism 7. The IC50 value and standard deviation were determined in GraphPad.

[4] = biological target: T4, human PINK1 (HsPINK1) (Homo sapiens, UniProt Q9BXM7); assay: In organello Ub4 kinase assay with mitochondria isolated from CCCP-treated HeLa cells; format: biochemical; conditions: 100 µM compound, 0.1 mM ATP, 15 min, 30 °C
T4 construct: host or cells: HeLa (mitochondria isolated after CCCP)
Description: Wild type (WT) HeLa cells (ATCC #CCL-2) were cultured in DMEM medium supplemented with 10% fetal bovine serum (FBS) at 37 °C and 5% CO2 in a humidified atmosphere. Cells were then treated with 20 µM CCCP for 3 h to induce the accumulation of PINK1. Cells were then washed twice in ice-cold mitochondrial isolation buffer (MIB: 20 mM HEPES, 70 mM sucrose, 220 mM mannitol, pH 7.4, 1 mM EDTA, Complete protease inhibitors), resuspended in MIB and lysed using nitrogen cavitation for 5 min at 500 psi. Cell debris were removed by centrifugation at 500 g for 5 min, and mitochondria were pelleted by centrifugation at 20,000g for 20 min. 7.5 µg of mitochondria was incubated with 3.75 µg Ub4, 5 mM MgCl2, 0.1 mM ATP and 100 µM of each inhibitor for 15 min at 30 °C. The reaction was quenched with Laemlli buffer and loaded on a gel for immunoblotting as described above. The following antibodies were used: anti-pS65-Ub (E2J6T; rabbit mAb, CST, 62802), anti-PINK1 (D8G3; rabbit IgG mAb; CST, 6946), anti-cytochrome C (136F3, recombinant rabbit mAb, CST, 4280), and HRP-conjugated secondary anti-rabbit (CST, 7074).

[5] = biological target: T5, GST-TcPINK1 (Tribolium castaneum, UniProt D6WMX4); assay: In vitro ubiquitin kinase assay with monoubiquitin, Phos-tag gel; format: biochemical; conditions: 5 µM GST-TcPINK1, 30 µM ubiquitin, 1 mM ATP, 37 °C
T5 construct: made in house; host or cells: E. coli
Description: (a) Thermal shift assay screen of kinase inhibitors against Tribolium castaneum PINK1 (TcPINK1) with melting temperature increase of 1.5 °C and above. Error bars indicate standard error of ΔTm estimation from melting curves (n = 1). (b) In vitro ubiquitin kinase assays with TcPINK1 and tetraubiquitin (Ub4). Reactions were analyzed by immunoblotting against phospho-ubiquitin (pUb). […] The ponceau staining of the above gel is shown as loading control. (c) In vitro ubiquitin kinase assays with 5 μM GST-TcPINK1 and 30 μM ubiquitin, as well as 1 mM ATP at 37 °C (n = 1). Reactions were analyzed using a phos-tag gel and stained by Coomassie blue. (d) Chemical structures of identified PINK1 inhibitors.

[6] = biological target: T6, human PINK1 (PINK1-3HA) in HeLa S3 cells (Homo sapiens, UniProt Q9BXM7); assay: HeLa S3 cells IC50 determination (pUb immunoblot after CCCP); format: cell-based; conditions: HeLa S3 PINK1-3HA, CCCP 4 h
T6 construct: expressed in transfected cells; host or cells: HeLa S3

[7] = biological target: T7, endogenous PINK1 in dopaminergic (DA) neurons (Homo sapiens, UniProt Q9BXM7); assay: Assay with dopaminergic neurons (CCCP, immunoblot); format: cell-based; conditions: 48 h compound then 20 µM CCCP 2 h
T7 construct: host or cells: ReN VM cells differentiated to dopamine neurons

[8] = biological target: T8, TcPINK1 (Tribolium castaneum, UniProt D6WMX4); assay: Autophosphorylation (transphosphorylation) assay by intact LC-MS; format: biochemical; conditions: 100 µM compound, 5 µM TcPINK1, 1 mM ATP, 30 °C
T8 sequence (D6WMX4 128-570 limits assumed): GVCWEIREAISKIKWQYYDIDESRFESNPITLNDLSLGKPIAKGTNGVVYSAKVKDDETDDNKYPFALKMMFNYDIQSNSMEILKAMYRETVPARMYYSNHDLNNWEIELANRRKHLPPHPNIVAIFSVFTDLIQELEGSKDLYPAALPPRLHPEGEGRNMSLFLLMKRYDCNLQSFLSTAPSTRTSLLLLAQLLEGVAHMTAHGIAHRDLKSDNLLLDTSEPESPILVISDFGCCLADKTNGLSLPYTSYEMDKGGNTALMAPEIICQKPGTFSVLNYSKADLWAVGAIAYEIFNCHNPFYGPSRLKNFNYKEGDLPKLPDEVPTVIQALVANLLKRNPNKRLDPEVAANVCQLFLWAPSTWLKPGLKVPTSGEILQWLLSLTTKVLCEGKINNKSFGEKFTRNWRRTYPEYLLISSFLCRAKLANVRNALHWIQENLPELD
Description: Intact protein mass spectrometry was used to monitor transphosphorylation of TcPINK1-D337N by ^15N-TcPINK1-WT, as described previously. ^15N-TcPINK1 at 5 μM was combined with 5 μM TcPINK1-D337N, 100 μM compound of interest, 1 mM ATP, 2 mM MgSO4 in 300 mM NaCl, 50 mM Tris–HCl pH 8, 2 mM DTT with 2% DMSO at 30 °C for transphosphorylation reactions with timepoints of 0 s, 30 s, 60 s, and 120 s. Timepoint reactions were stopped by addition of 0.05% TFA and 2% acetonitrile (final concentrations). Reactions in 20 μL were injected on a Dionex C4 Acclaim 1.0/15 mm column followed by a 10 min 4–50% gradient of ACN in 0.1% formic acid with a flow rate of 40 μL/min. The eluate was analyzed on a Bruker Impact II Q-TOF mass spectrometer equipped with an Apollo II ion funnel ESI source. The multiply charged ions were deconvoluted at 10,000 resolution using the maximum entropy method. The signal intensity of the nonphosphorylated and phosphorylated TcPINK1-D337N peaks were estimated using the DataAnalysis software integration tool and used to calculate the fraction phosphorylated.

[9] = system: MLK1; conditions: cited from earlier work
[10] = system: FGR; conditions: cited from earlier work
[11] = biological target: FMS-like tyrosine kinase 3 (FLTK3); conditions: read-out: Inhibition of FLTK3; cited from earlier work

T4 sequence (Q9BXM7 78-581): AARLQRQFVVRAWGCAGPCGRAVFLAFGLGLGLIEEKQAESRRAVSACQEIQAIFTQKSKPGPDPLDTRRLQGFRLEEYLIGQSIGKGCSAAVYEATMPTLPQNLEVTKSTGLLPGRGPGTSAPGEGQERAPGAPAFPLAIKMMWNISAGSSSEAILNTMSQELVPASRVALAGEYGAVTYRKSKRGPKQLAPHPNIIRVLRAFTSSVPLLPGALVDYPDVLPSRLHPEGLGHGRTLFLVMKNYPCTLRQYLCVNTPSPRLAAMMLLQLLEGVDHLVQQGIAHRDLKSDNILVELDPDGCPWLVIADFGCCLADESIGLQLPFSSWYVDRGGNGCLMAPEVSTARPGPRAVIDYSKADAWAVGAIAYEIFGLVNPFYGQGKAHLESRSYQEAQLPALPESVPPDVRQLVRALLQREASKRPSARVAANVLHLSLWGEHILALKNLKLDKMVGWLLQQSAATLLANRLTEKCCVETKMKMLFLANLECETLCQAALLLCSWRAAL
T7 sequence (Q9BXM7 78-581): as above
T6 sequence (Q9BXM7 78-581): as above
T2 sequence (D6WMX4 121-570 W131A/W142A/Y225A/F401A): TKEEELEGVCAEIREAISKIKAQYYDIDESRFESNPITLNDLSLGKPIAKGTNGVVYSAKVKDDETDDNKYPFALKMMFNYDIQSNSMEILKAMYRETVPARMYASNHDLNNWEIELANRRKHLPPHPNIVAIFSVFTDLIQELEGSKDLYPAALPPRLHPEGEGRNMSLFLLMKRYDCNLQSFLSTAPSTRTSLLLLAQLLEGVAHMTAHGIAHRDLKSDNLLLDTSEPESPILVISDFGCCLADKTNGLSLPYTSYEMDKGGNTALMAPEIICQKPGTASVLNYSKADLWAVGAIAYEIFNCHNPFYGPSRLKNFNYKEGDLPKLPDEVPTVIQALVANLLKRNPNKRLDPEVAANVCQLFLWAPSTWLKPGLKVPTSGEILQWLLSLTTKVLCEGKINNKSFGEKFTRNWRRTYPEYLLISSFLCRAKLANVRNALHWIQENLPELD
T5 sequence (D6WMX4 with tags, fused parts or gaps limits assumed): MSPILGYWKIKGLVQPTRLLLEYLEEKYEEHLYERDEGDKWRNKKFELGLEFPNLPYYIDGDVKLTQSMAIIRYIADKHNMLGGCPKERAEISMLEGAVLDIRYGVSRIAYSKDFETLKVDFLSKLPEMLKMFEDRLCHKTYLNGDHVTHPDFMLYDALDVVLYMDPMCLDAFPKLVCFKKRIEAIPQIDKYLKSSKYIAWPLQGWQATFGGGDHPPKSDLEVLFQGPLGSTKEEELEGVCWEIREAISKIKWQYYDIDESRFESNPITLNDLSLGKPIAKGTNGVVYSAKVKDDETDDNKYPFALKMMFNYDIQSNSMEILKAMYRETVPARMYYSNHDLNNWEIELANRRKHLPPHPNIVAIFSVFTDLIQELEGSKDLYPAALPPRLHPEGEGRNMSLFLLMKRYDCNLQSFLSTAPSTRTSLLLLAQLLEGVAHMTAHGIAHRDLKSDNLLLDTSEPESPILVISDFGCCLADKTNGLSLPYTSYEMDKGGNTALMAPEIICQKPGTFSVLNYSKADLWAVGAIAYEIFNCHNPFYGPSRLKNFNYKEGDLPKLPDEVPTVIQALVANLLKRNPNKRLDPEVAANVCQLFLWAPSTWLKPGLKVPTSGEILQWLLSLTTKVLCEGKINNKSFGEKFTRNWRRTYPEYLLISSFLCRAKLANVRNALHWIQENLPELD

Row | Structure (SMILES) | Inhibition of Ub4 phosphorylation (kinase activity of TcPINK1) [1] | IC50 [3] [µM] | Inhibition of human PINK1 Ub4 phosphorylation in organello [4] | further results
1 | NC(=O)c1cnc(N[C@@H]2CCCC[C@@H]2N)nc1Nc1ccccc1 (racemic) [PRT-core] | inhibit the kinase activity of TcPINK1 |  |  | 
2 | Nc1ncnc2c1ncn2[C@@H]1O[C@H](COP(=O)(O)OP(=O)(O)NP(=O)(O)O)[C@@H](O)[C@H]1O [AMP-PNP] |  |  |  | Kd [2]: 96 µM
3 | Cc1nc(N)sc1-c1ccnc(Nc2ccc(N3CCOCC3)cc2)n1 [CYC116] |  | 65.4 ± 1.1 |  | 
4 | Nc1nc(Nc2ccc(S(N)(=O)=O)cc2)nn1C(=O)c1c(F)cccc1F [JNJ-7706621] |  | 27.6 ± 1.1 |  | 
5 | FC(F)(F)c1cc2c(N[C@@H]3CCCc4ccccc43)ncnc2[nH]1 [MTK458] |  |  | does not significantly affect Ub4 phosphorylation | 
6 | Cc1cccc(Nc2nc(N[C@@H]3CCCC[C@@H]3N)ncc2C(N)=O)c1 [PRT060318] | inhibit the kinase activity of TcPINK1 | 2.5 | most potent inhibitors of human PINK1 kinase activity | 
7 | NC(=O)c1cnc(N[C@@H]2CCCC[C@@H]2N)nc1Nc1cccc(-n2nccn2)c1 [PRT062607] | inhibits Ub4 phosphorylation most strongly |  | most potent inhibitors of human PINK1 kinase activity | Inhibition of monoubiquitin phosphorylation [5]: inhibits TcPINK1; PINK1 levels (HA blot) [6]: not substantially affected; Mfn2 ubiquitination [7]: inhibition of Mfn2 ubiquitination; Potential-dependent cleavage of Opa1 to its short isoform [7]: not affected; pUb signal [7]: reduction of the pUb signal in a dose-dependent manner; TcPINK1 autophosphorylation [8]: inhibits TcPINK1 autophosphorylation; IC50 [9]: […]; IC50 [10]: 81 nM
8 | Cn1cc(-c2nc(N[C@@H]3CCCC[C@@H]3N)c(F)c3c2C(=O)NC3)cn1 [TAK-659] | inhibit the kinase activity of TcPINK1 | 6.4 ± 1 |  | IC50 [11]: 5 nM
9 | CNCc1ccc(-c2cc(-c3nc(-c4ccc(S(=O)(=O)C(C)C)cc4)cnc3N)on2)cc1 [VE822] |  |  | does not significantly impact HsPINK1 | TcPINK1 activity compared to control ([1]; Ub4 substrate): 8%
